Measured values reported in PubChem BioAssay AID1918996 (Molecular Pharmacology Branch, DTP, NCI, 2023).

Tested on: 349418-098-R-PDC complex spheroid growth
Assay: Anticancer human tumor 349418-098-R-PDC patient-derived lung adenocarcinoma cell line growth inhibition [AhR]
Settings: for IC50: curve of first compound; for viability, T/C: stronger effect = lower value
Procedure, shortened: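 Agents were dosed in half-log steps down from roughly clinical Cmax, or from 10 microM where Cmax was unknown, alone and with AhR antagonists. Read-out: percent test/control growth of tumor spheroids containing HUVEC and MSC stromal cells.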

[1] = second compound 0.1 µM, first compound 0.0316 µM
[2] = second compound 0.1 µM, first compound 0.1 µM
[3] = second compound 0.1 µM, first compound 0.316 µM
[4] = second compound 0.1 µM, first compound 1 µM
[5] = second compound 0.1 µM, first compound 3.16 µM
[6] = second compound 0.1 µM, first compound 10 µM
[7] = second compound 0.316 µM, first compound 0.0316 µM
[8] = second compound 0.316 µM, first compound 0.1 µM
[9] = second compound 0.316 µM, first compound 0.316 µM
[10] = second compound 0.316 µM, first compound 1 µM
[11] = second compound 0.316 µM, first compound 3.16 µM
[12] = second compound 0.316 µM, first compound 10 µM
[13] = second compound 1 µM, first compound 0.0316 µM
[14] = second compound 1 µM, first compound 0.1 µM
[15] = second compound 1 µM, first compound 0.316 µM
[16] = second compound 1 µM, first compound 1 µM
[17] = second compound 1 µM, first compound 3.16 µM
[18] = second compound 1 µM, first compound 10 µM
[19] = second compound 3.16 µM, first compound 0.0316 µM
[20] = second compound 3.16 µM, first compound 0.1 µM
[21] = second compound 3.16 µM, first compound 0.316 µM
[22] = second compound 3.16 µM, first compound 1 µM
[23] = second compound 3.16 µM, first compound 3.16 µM
[24] = second compound 3.16 µM, first compound 10 µM
[25] = second compound 10 µM, first compound 0.0316 µM
[26] = second compound 10 µM, first compound 0.1 µM
[27] = second compound 10 µM, first compound 0.316 µM
[28] = second compound 10 µM, first compound 1 µM
[29] = second compound 10 µM, first compound 3.16 µM
[30] = second compound 10 µM, first compound 10 µM
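Further: spheroids exposed to agents for seven days before luminescence viability read.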
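Wherever viability, T/C is given: spheroids also contain HUVEC endothelial cells and human MSC stroma.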

SMILES | IC50 (second compound 0.1 µM) [nM] | IC50 (second compound 0.316 µM) [nM] | IC50 (second compound 1 µM) [nM] | IC50 (second compound 3.16 µM) [nM] | IC50 (second compound 10 µM) [nM] | viability, T/C [1] [%] | viability, T/C [2] [%] | viability, T/C [3] [%] | viability, T/C [4] [%] | viability, T/C [5] [%] | viability, T/C [6] [%] | viability, T/C [7] [%] | viability, T/C [8] [%] | viability, T/C [9] [%] | viability, T/C [13] [%] | viability, T/C [14] [%] | viability, T/C [19] [%] | viability, T/C [20] [%] | viability, T/C [25] [%] | viability, T/C [26] [%] | further results
COc1cc(Nc2ncc3c(n2)-c2ccc(Cl)cc2C(c2c(F)cccc2OC)=NC3)ccc1C(=O)O + Cc1ccccc1N=Nc1ccc(NC(=O)c2ccnn2C)c(C)c1 | 105 | 157 | 65.7 | < 31.6 | < 31.6 | 70.5 | 50.9 | 30.5 | 30.8 | 33.5 | 31.1 | 64.8 | 63 | 29.8 | 71.8 | 36.6 | 48.7 | 38.1 | 38.9 | 29.7 | viability, T/C [10]: 28.5%; viability, T/C [11]: 23.4%; viability, T/C [12]: 26%; viability, T/C [15]: 34.4%; viability, T/C [16]: 32.3%; viability, T/C [17]: 30.5%; viability, T/C [18]: 26.5%; viability, T/C [21]: 32.2%; viability, T/C [22]: 27.1%; viability, T/C [23]: 26.8%; viability, T/C [24]: 26.6%; viability, T/C [27]: 32.2%; viability, T/C [28]: 27.1%; viability, T/C [29]: 23.6%; viability, T/C [30]: 27.1%
Cn1ncnc1C1c2n[nH]c(=O)c3cc(F)cc(c23)NC1c1ccc(F)cc1 (stereo not given) + Cc1ccccc1N=Nc1ccc(NC(=O)c2ccnn2C)c(C)c1 | > 100 | > 100 | > 100 | > 100 | > 100 | 99.1 | 67.4 |  |  |  |  | 115 | 71.6 |  | 94.2 | 80.6 | 71.4 | 63.6 | 70.8 | 55.6 | viability, T/C (second compound 0.1 µM, first compound 0.000316 µM): 106%; viability, T/C (second compound 0.1 µM, first compound 0.001 µM): 93.8%; viability, T/C (second compound 0.1 µM, first compound 0.00316 µM): 118%; viability, T/C (second compound 0.1 µM, first compound 0.01 µM): 56.1%; viability, T/C (second compound 0.316 µM, first compound 0.000316 µM): 110%; viability, T/C (second compound 0.316 µM, first compound 0.001 µM): 87.2%; viability, T/C (second compound 0.316 µM, first compound 0.00316 µM): 113%; viability, T/C (second compound 0.316 µM, first compound 0.01 µM): 74.1%; viability, T/C (second compound 1 µM, first compound 0.000316 µM): 82.9%; viability, T/C (second compound 1 µM, first compound 0.001 µM): 102%; viability, T/C (second compound 1 µM, first compound 0.00316 µM): 106%; viability, T/C (second compound 1 µM, first compound 0.01 µM): 89.9%; viability, T/C (second compound 3.16 µM, first compound 0.000316 µM): 72.1%; viability, T/C (second compound 3.16 µM, first compound 0.001 µM): 90.2%; viability, T/C (second compound 3.16 µM, first compound 0.00316 µM): 98.8%; viability, T/C (second compound 3.16 µM, first compound 0.01 µM): 79%; viability, T/C (second compound 10 µM, first compound 0.000316 µM): 61.5%; viability, T/C (second compound 10 µM, first compound 0.001 µM): 71.8%; viability, T/C (second compound 10 µM, first compound 0.00316 µM): 76.2%; viability, T/C (second compound 10 µM, first compound 0.01 µM): 51.2%
NS(=O)(=O)OCC1CC(n2ccc3c(NC4CCc5ccccc54)ncnc32)CC1O (stereo not given) + Cc1ccccc1N=Nc1ccc(NC(=O)c2ccnn2C)c(C)c1 | 287 | 196 | 221 | 131 | 63.7 | 96.6 | 81.3 | 46.1 | 22.6 | 11.4 | 10.5 | 75 | 63.8 | 39.2 | 90.4 | 71.1 | 68.5 | 58.1 | 65.3 | 38.9 | viability, T/C [10]: 24.9%; viability, T/C [11]: 11.8%; viability, T/C [12]: 10.2%; viability, T/C [15]: 39%; viability, T/C [16]: 23.5%; viability, T/C [17]: 12%; viability, T/C [18]: 10.1%; viability, T/C [21]: 26.3%; viability, T/C [22]: 20.2%; viability, T/C [23]: 11.9%; viability, T/C [24]: 9.47%; viability, T/C [27]: 27.1%; viability, T/C [28]: 18%; viability, T/C [29]: 10.8%; viability, T/C [30]: 9.27%
O=C(C=Cc1cccc(S(=O)(=O)Nc2ccccc2)c1)NO + Cc1ccccc1N=Nc1ccc(NC(=O)c2ccnn2C)c(C)c1 | 772 | 706 | 597 | 671 | 331 | 132 | 119 | 73 | 47.6 | 10.4 | 1.93 | 126 | 108 | 82.8 | 109 | 122 | 94 | 94.1 | 74.7 | 72.5 | viability, T/C [10]: 36.1%; viability, T/C [11]: 8.81%; viability, T/C [12]: 1.91%; viability, T/C [15]: 69.3%; viability, T/C [16]: 33.3%; viability, T/C [17]: 8.25%; viability, T/C [18]: 2.09%; viability, T/C [21]: 78.3%; viability, T/C [22]: 34.7%; viability, T/C [23]: 8.53%; viability, T/C [24]: 2.35%; viability, T/C [27]: 50%; viability, T/C [28]: 22.9%; viability, T/C [29]: 8.56%; viability, T/C [30]: 2.05%
